According to patent US5424424A, “Tartaric acid derivatives of substituted dibenzoxazepine compounds, pharmaceutical compositions and methods of use” (G. D. Searle & Co., priority 1993, dated 1995):
Counter-ions that a name gives are not always drawn.

Key:
mice = assay: Writhing Assay (phenylbenzoquinone-induced writhing, analgesia); assay type: in vivo, Charles River male albino mice; details: 30 mg per kilogram, intragastric, 30 minutes before PBQ i.p.; analgesia = writhes equal to or less than one-half the median of saline control
Description: The Writhing Assay is one of the most widely-used experimental procedures for measuring the analgesic activity of different narcotic and nonnarcotic analgesic agents, and involves the continuous, chemically-induced pain of visceral origin to an animal, such as a mouse or rat. [Gyires et al., Arch. int. Pharmacodyn, 267, 131-140 (984); C. Vander Wende et al., Fed. Proc., 15, 494 (1956); Koster et al., Fed. Proc., 18, 412 (1959); and Witken et al., J. Pharmacol. exp. Ther., 133, 400-408 (1961).] Chemicals which may be used to induce this pain include phenylbenzoquinone (PBQ) and acetic acid. As a result of the chemical irritation to the animal, a characteristic stretching and writhing of the animal (dorsiflexion of the animal's back, extension of its hindlimbs and the strong contraction of its abdominal musculature) will generally occur. […] Drugs which reduce the number of writhes of the animal appear to restore the normal nociceptive threshold of the animal.
Charles River male albino mice, weighing 20 to 30 grams, were used in this assay.
Thirty minutes after intragastric administration to ten mice of 30 mg per kilogram of body weight of a compound of the present invention ("test compound"), […] per 10 g of body weight of a 0.025% w/v solution of PB was injected intraperitoneally into each mouse. Ten mice which were given saline in place of a test compound of the invention were used as a control group.
Five minutes later, each mouse was individually placed into a glass beaker for observation, and the number of writhes occurring during the following ten-minute period was counted.
A test compound was considered to have produced analgesia in a mouse if, in accordance with the conditions set forth above, and under the test criteria employed for this assay, after the administration of 30 mg per kilogram of body weight of a compound of the present invention to the mouse, the number of writhes elicited by a mouse injected with PBQ was equal to, or less than, one-half the median number of writhes recorded for the saline-treated control group of mice that day, as described by Taber in "Predictive Value of Analgesic Assays in Mice and Rats," Advances in Biochemical Psychopharmacology, 8, 191 (1974).
The results for the particular compounds of the present invention analyzed in this assay, and discussed in the examples identified below which correspond thereto, are presented in Table 1 hereinbelow as fractions under the heading "WRITHING ASSAY." The fractions indicate the number of mice out of ten in which a test compound produced analgesia.

[1] = test system: prostaglandin E2-induced contractions of segments of guinea pig ileum; assay: Prostaglandin (PGE) Antagonism Assay in guinea pig ileum; assay type: tissue-based, Male albino guinea pigs; details: dose ratio of prostaglandin E2 EC50 values; initial concentration 3 micromolar test compound, 37° C., incubated thirty minutes
Procedure: In order to determine the effectiveness of several of the compounds of the present invention ("test compounds") as prostaglandin E2 antagonists,a prostaglandin antagonism assay was conducted, as described below, to determine the ability of these compounds to inhibit prostaglandin E2 -induced contractions of segments of guinea pig ileum.
Male albino guinea pigs weighing 200 to 500 grams were sacrificed by cervical dislocation. The ilea were then quickly removed from the guinea pigs and placed in a modified Tyrode solution, a solution which is known to those skilled in the art, containing one-half of the usual amount of magnesium ions.
Segments of ileum about 2 cm long were then cut and mounted in a 10 mL tissue bath containing the modified Tyrode solution. The solution was maintained at 37° C. and aerated with a gaseous mixture of 95% oxygen and 5% carbon dioxide. Data for a control prostaglandin E2 dose response curve plotting concentration of prostaglandin E2 versus the intensity of contractions, detected isotonically, was then obtained by experimentally adjusting the dose of the prostaglandin E2 being injected into the tissue bath, in a manner known by those of skill in the art.
Solutions or suspensions containing an initial concentration (3 micromolar) of a test compound in modified Tyrode solution ("test solutions/suspensions") were then separately substituted for the control bath solution. Each test solution/suspension was then kept in constant contact with the ileum tissue, except for brief periods to drain the bath in preparation for rinsing with fresh test solution/suspension. A second prostaglandin E2 dose response curve was then generated for prostaglandin E2 in the presence of a test compound.
A control dose response curve is produced in isolated segments of guinea pig ileum mounted in an automated apparatus with six concentrations of prostaglandin E2. A solution or suspension of test compound is substituted for the control bathing solution and is incubated for thirty minutes. An additional prostaglandin E2 dose response curve is then performed in the presence of the test compound. A dose ratio is calculated from the EC50 values obtained from duplicate replications on each concentration of the test compound.
A dose ratio of EC50 doses was calculated from the results of each test in a manner known by those of skill in the art, and described above.
The compounds of the present invention which were tested in this assay, and for which results are presented in Table 1, correspond to the particular examples specified in Table 1.

| Structure (SMILES) | WRITHING ASSAY I.G.: number of mice out of ten in which a test compound produced analgesia (mice) | PGE ANTAGONISM IN GUINEA PIG ILEUM Dose Ratio [1] |
| --- | --- | --- |
| CC(=O)O[C@@H](C(=O)NCc1ccncc1)[C@@H](OC(C)=O)C(=O)N1Cc2ccccc2Oc2ccc(Cl)cc21 [Example 7, αR,βR-Bis(acetyloxy)-8-chloro-γ-oxo-N-(4-pyridinylmethyl)dibenz[b,f][1,4]oxazepine-10(11H)-butanamide, hydrochloride] | 8/10 | 1.2 |
| CC(=O)O[C@H](C(=O)NCc1cccnc1)[C@H](OC(C)=O)C(=O)N1Cc2ccccc2Oc2ccc(Cl)cc21 [Example 4, αS,βS-Bis(acetyloxy)-8-chloro-γ-oxo-N-(3-pyridinylmethyl)-dibenz[b,f][1,4]oxazepine-10(11H)-butanamide, hydrochloride] | 9/10 | 0.74 |
| CC(=O)O[C@@H](C(=O)NCc1ccccn1)[C@@H](OC(C)=O)C(=O)N1Cc2ccccc2Oc2ccc(Cl)cc21 [Example 9, αR,βR-Bis(acetyloxy)-8-chloro-γ-oxo-N-(2-pyridinylmethyl)dibenz[b,f][1,4]oxazepine-10(11H)-butanamide, hydrochloride] | 5/10 | 1.1 |
| CC(=O)O[C@@H](C(=O)NCc1cccnc1)[C@@H](OC(C)=O)C(=O)N1Cc2ccccc2Oc2ccc(Cl)cc21 [Example 8, αR,βR-Bis(acetyloxy)-8-chloro-γ-oxo-N-(3-pyridinylmethyl)dibenz[b,f][1,4]oxazepine-10(11H)]-butanamide, hydrochloride] | 6/10 | 2.4 |
| CC(=O)O[C@H](C(=O)NCc1ccccn1)[C@H](OC(C)=O)C(=O)N1Cc2ccccc2Oc2ccc(Cl)cc21 [Example 5, αS,βS-Bis(acetyloxy)-8-chloro-γ-oxo-N-(2-pyridinylmethyl)dibenz[b,f][1,4]oxazepine-10(11H)-butanamide, hydrochloride] | 5/10 | 1.7 |
| CC(=O)O[C@H](C(=O)NCCN(C)C)[C@H](OC(C)=O)C(=O)N1Cc2ccccc2Oc2ccc(Cl)cc21 [Example 2, αS,βS-Bis(acetyloxy)-8-chloro-N-[2-(dimethylamino)ethyl]-γ-oxodibenz[b,f][1,4]oxazepine-10(11H)-butanamide, monohydrochloride] | 0/10 | – |
| CC(=O)O[C@H](C(=O)NCc1ccncc1)[C@H](OC(C)=O)C(=O)N1Cc2ccccc2Oc2ccc(Cl)cc21 [Example 3, αS,βS-Bis(acetyloxy)-8-chloro-γ-oxo-N-(4-pyridinylmethyl)-dibenz[b,f][1,4]oxazepine-10(11H)-butanamide, hydrochloride] | 5/10 | 1.3 |
